From US20100056565A1, “Heterocyclic Derivatives as M3 Muscarinic Receptors” (priority 2007, published 2010)

target: T1, human muscarinic receptors (M3) (Homo sapiens, UniProt P20309); assay: Muscarinic receptor radioligand binding assay, [3H]-NMS, filter plate format; details: filter plate format; read-out: M3 Ki (Filter plate format)
T1 construct: purchased
Experimental: Radioligand binding studies utilising [^3H]-N-methyl scopolamine ([^3H]-NMS) and commercially available cell membranes expressing the human muscarinic receptors (M2 and M3) were used to assess the affinity of muscarinic antagonists for M2 and M3 receptors. Membranes in TRIS buffer were incubated in 96-well plates with [^3H]-NMS and M3 antagonist at various concentrations for 3 hours. Membranes and bound radioligand were then harvested by filtration and allowed to dry overnight. Scintillation fluid was then added and the bound radioligand counted using a Canberra Packard Topcount scintillation counter

T1 sequence (P20309 whole entry): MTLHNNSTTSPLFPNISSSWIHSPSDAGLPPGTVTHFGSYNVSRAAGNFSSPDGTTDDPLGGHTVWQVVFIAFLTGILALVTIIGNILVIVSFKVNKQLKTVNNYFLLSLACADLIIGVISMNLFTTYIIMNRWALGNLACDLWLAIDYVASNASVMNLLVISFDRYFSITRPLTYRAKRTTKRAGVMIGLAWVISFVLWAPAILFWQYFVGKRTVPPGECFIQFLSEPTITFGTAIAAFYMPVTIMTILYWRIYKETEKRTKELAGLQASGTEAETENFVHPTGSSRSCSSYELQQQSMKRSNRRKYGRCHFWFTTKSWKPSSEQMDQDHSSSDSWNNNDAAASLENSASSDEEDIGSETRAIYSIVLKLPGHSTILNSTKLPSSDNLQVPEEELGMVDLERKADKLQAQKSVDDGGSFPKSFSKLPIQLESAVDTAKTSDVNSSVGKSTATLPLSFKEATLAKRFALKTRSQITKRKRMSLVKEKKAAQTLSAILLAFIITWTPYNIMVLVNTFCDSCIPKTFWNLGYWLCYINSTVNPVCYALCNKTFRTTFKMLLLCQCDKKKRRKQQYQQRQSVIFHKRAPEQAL

| SMILES | Ki |
| --- | --- |
| OC(c1ccccc1)(c1ncc(C[N+]23CCC(CC2)C(Oc2ccccc2)C3)o1)C1CCCCC1 (single isomer, unassigned; enantiomer 1) [Example 3, 1-[2-[(RS)—(Cyclohexyl-hydroxy-phenyl-methyl)]-oxazol-5-ylmethyl]-3-phenoxy-1-azonia-bicyclo[2.2.2]octane bromide, enantiomer 1] | 5 to 20 nM |

target: T2, Recombinant human M3 receptor (Homo sapiens, UniProt P20309); assay: biochemical; format: binding; details: SPA format; read-out: M3 Ki (SPA format)
T2 construct: expressed in transfected cells; host or cells: CHO-K1 cells (membranes)
T2 sequence (P20309 whole entry): as above

| SMILES | Ki |
| --- | --- |
| O[C@](c1ccccc1)(c1ncc(C[N+]23CCC(CC2)[C@@H](Sc2cccc(F)c2)C3)o1)C1CCCCC1 [Example 105, (R)-1-[2-((R)—Cyclohexyl-hydroxy-phenyl-methyl)-oxazol-5-ylmethyl]-3-(3-fluoro-phenylsulfanyl)-1-azonia-bicyclo[2.2.2]octane; bromide] | < 5 nM |
| O[C@](c1ccccc1)(c1ncc(C[N+]23CCC(CC2)[C@@H](CSc2ccc(F)cc2)C3)o1)C1CCCCC1 [Example 106, (R)-1-[2-((R)—Cyclohexyl-hydroxy-phenyl-methyl)-oxazol-5-ylmethyl]-3-(4-fluoro-phenylsulfanylmethyl)-1-azonia-bicyclo[2.2.2]octane; bromide] | < 5 nM |
| O[C@](c1ccccc1)(c1ncc(C[N+]23CCC(CC2)[C@@H](CSc2ccc(Cl)cc2)C3)o1)C1CCCCC1 [Example 107, (R)-3-(4-Chloro-phenylsulfanylmethyl)-1-[2-(R)cyclohexyl-hydroxy-phenyl-methyl)-oxazol-5-ylmethyl]-1-azonia-bicyclo[2.2.2]octane; bromide] | < 5 nM |
| O[C@](c1ccccc1)(c1ncc(C[N+]23CCC(CC2)[C@@H](CSc2cccc(F)c2)C3)o1)C1CCCCC1 [Example 108, (R)-1-[2-((R)—Cyclohexyl-hydroxy-phenyl-methyl)-oxazol-5-ylmethyl]-3-(3-fluoro-phenylsulfanylmethyl)-1-azonia-bicyclo[2.2.2]octane; bromide] | < 5 nM |
| O[C@](c1ccccc1)(c1ncc(C[N+]23CCC(CC2)[C@H](CSc2ccc(F)cc2)C3)o1)C1CCCCC1 [Example 109, (S)-1-[2-((R)—Cyclohexyl-hydroxy-phenyl-methyl)-oxazol-5-ylmethyl]-3-(4-fluoro-phenylsulfanylmethyl)-1-azonia-bicyclo[2.2.2]octane; bromide] | < 5 nM |
| O[C@](c1ccccc1)(c1ncc(C[N+]23CCC(CC2)[C@H](CSc2ccc(Cl)cc2)C3)o1)C1CCCCC1 [Example 110, (S)-3-(4-Chloro-phenylsulfanylmethyl)-1-[2-((R)cyclohexyl-hydroxy-phenyl-methyl)-oxazol-5-ylmethyl]-1-azonia-bicyclo[2.2.2]octane; bromide] | < 5 nM |
| O[C@](c1ccccc1)(c1ncc(C[N+]23CCC(CC2)[C@H](CSc2cccc(F)c2)C3)o1)C1CCCCC1 [Example 111, (S)-1-[2-((R)—Cyclohexyl-hydroxy-phenyl-methyl)-oxazol-5-ylmethyl]-3-(3-fluoro-phenylsulfanylmethyl)-1-azonia-bicyclo[2.2.2]octane; bromide] | < 5 nM |
| C=C(C)CO[C@H]1C[N+]2(Cc3cnc([C@](O)(c4ccccc4)C4CCCCC4)o3)CCC1CC2 [Example 112, (R)-1-[2-((R)—Cyclohexyl-hydroxy-phenyl-methyl)-oxazol-5-ylmethyl]-3-(2-methyl-allyloxy)-1-azonia-bicyclo[2.2.2]octane; bromide] | < 5 nM |
| C/C=C/CO[C@H]1C[N+]2(Cc3cnc([C@](O)(c4ccccc4)C4CCCCC4)o3)CCC1CC2 [Example 113, (R)-3-[((E)-But-2-enyl)oxy]-1-[2-((R)-cyclohexyl-hydroxy-phenyl-methyl)-oxazol-5-ylmethyl]-1-azonia-bicyclo[2.2.2]octane; bromide] | < 5 nM |
| OC(c1ccccc1)(c1ccccc1)c1ncc(C[N+]23CCC(CC2)[C@@H](Oc2ccsc2)C3)o1 [Example 114, (R)-1-[2-(Hydroxy-diphenyl-methyl)-oxazol-5-ylmethyl]-3-(thiophen-3-yloxy)-1-azonia-bicyclo[2.2.2]octane; bromide] | 5 to 20 nM |
| OC(c1ccccc1)(c1ccccc1)c1noc(C[N+]23CCC(CC2)[C@@H](Oc2ccsc2)C3)n1 [Example 115, (R)-1-[3-(Hydroxy-diphenyl-methyl)-[1,2,4]oxadiazol-5-ylmethyl]-3-(thiophen-3-yloxy)-1-azonia-bicyclo[2.2.2]octane; chloride] | < 5 nM |
| OC(c1ccccc1)(c1ccccc1)c1noc(C[N+]23CCC(CC2)[C@@H](Oc2cccs2)C3)n1 [Example 116, (R)-1-[3-(Hydroxy-diphenyl-methyl)-[1,2,4]oxadiazol-5-ylmethyl]-3-(thiophen-2-yloxy)-1-azonia-bicyclo[2.2.2]octane; chloride] | < 5 nM |
| OC(c1ccccc1)(c1ccccc1)c1noc(C[N+]23CCC(CC2)[C@@H](Oc2cccc(Cl)c2)C3)n1 [Example 117, (R)-3-(3-Chloro-phenoxy)-1-[3-(hydroxy-diphenyl-methyl)-[1,2,4]oxadiazol-5-ylmethyl]-1-azonia-bicyclo[2.2.2]octane; chloride] | < 5 nM |
| OC(c1ccccc1)(c1ccccc1)c1noc(C[N+]23CCC(CC2)[C@@H](Sc2ccccc2)C3)n1 [Example 118, (R)-1-[3-(Hydroxy-diphenyl-methyl)-[1,2,4]oxadiazol-5-ylmethyl]-3-phenylsulfanyl-1-azonia-bicyclo[2.2.2]octane; chloride] | < 5 nM |
| O[C@](c1ccccc1)(c1ncc(C[N+]23CCC(CC2)[C@@H](SC2CCCCC2)C3)o1)C1CCCCC1 [Example 119, (R)-1-[2-((R)—Cyclohexyl-hydroxy-phenyl-methyl)-oxazol-5-ylmethyl]-3-cyclohexylsulfanyl-1-azonia-bicyclo[2.2.2]octane; bromide] | < 5 nM |
| CC(C)CS[C@H]1C[N+]2(Cc3cnc([C@](O)(c4ccccc4)C4CCCCC4)o3)CCC1CC2 [Example 120, (R)-1-[2-((R)—Cyclohexyl-hydroxy-phenyl-methyl)-oxazol-5-ylmethyl]-3-isobutylsulfanyl-1-azonia-bicyclo[2.2.2]octane; bromide] | < 5 nM |
| O[C@](c1ccccc1)(c1nnc(C[N+]23CCC(CC2)[C@H](CSc2ccccc2)C3)o1)C1CCCCC1 [Example 121, (S)-1-[5-((R)—Cyclohexyl-hydroxy-phenyl-methyl)-[1,3,4]oxadiazol-2-ylmethyl]-3-phenylsulfanylmethyl-1-azonia-bicyclo[2.2.2]octane; bromide] | < 5 nM |
| O[C@](c1ccccc1)(c1nnc(C[N+]23CCC(CC2)[C@@H](Oc2cccc(F)c2)C3)o1)C1CCCCC1 [Example 134, (R)-1-[5-((R)—Cyclohexyl-hydroxy-phenyl-methyl)-[1,3,4]oxadiazol-2-ylmethyl]-3-(3-fluoro-phenoxy)-1-azonia-bicyclo[2.2.2]octane; bromide] | < 5 nM |
| OC(c1ccccc1)(c1ccccc1)c1noc(C[N+]23CCC(CC2)[C@@H](Oc2ccc4c(c2)OCO4)C3)n1 [Example 135, (R)-3-(Benzo[1,3]dioxol-5-yloxy)-1-[3-hydroxy-diphenyl-methyl)-[1,2,4]oxadiazol-5-ylmethyl]-1-azonia-bicyclo[2.2.2]octane; chloride] | < 5 nM |
| OC(c1ccccc1)(c1ccccc1)c1noc(C[N+]23CCC(CC2)[C@@H](Oc2ccc(Cl)cc2)C3)n1 [Example 136, (R)-3-(4-Chloro-phenoxy)-1-[3-(hydroxy-diphenyl-methyl)-[1,2,4]oxadiazol-5-ylmethyl]-1-azonia-bicyclo[2.2.2]octane; chloride] | < 5 nM |
| OC(c1ccccc1)(c1ccccc1)c1noc(C[N+]23CCC(CC2)[C@@H](Oc2cccc(C(F)(F)F)c2)C3)n1 [Example 137, (R)-1-[3-(Hydroxy-diphenyl-methyl)-[1,2,4]oxadiazol-5-ylmethyl]-3-(3-trifluoromethyl-phenoxy)-1-azonia-bicyclo[2.2.2]octane; chloride] | < 5 nM |
| OC(c1ccccc1)(c1ccccc1)c1noc(C[N+]23CCC(CC2)[C@@H](SC2CCCCC2)C3)n1 [Example 138, (R)-3-Cyclohexylsulfanyl-1-[3-(hydroxy-diphenyl-methyl)-[1,2,4]oxadiazol-5-ylmethyl]-1-azonia-bicyclo[2.2.2]octane; chloride] | < 5 nM |
| N#Cc1cccc(O[C@H]2C[N+]3(Cc4nc(C(O)(c5ccccc5)c5ccccc5)no4)CCC2CC3)c1 [Example 139, (R)-3-(3-Cyano-phenoxy)-1-[3-(hydroxy-diphenyl-methyl)-[1,2,4]oxadiazol-5-ylmethyl]-1-azonia-bicyclo[2.2.2]octane; chloride] | < 5 nM |
| O[C@](c1ccccc1)(c1nnc(C[N+]23CCC(CC2)[C@@H](OCc2ccc(F)cc2)C3)o1)C1CCCCC1 [Example 140, (R)-1-[5-((R)—Cyclohexyl-hydroxy-phenyl-methyl)-[1,3,4]oxadiazol-2-ylmethyl]-3-(4-fluoro-benzyloxy)-1-azonia-bicyclo[2.2.2]octane; bromide] | < 5 nM |
| OC(c1ccccc1)(c1ccccc1)c1noc(C[N+]23CCC(CC2)[C@@H](OCc2ccc(F)cc2)C3)n1 [Example 141, (R)-3-(4-Fluoro-benzyloxy)-1-[3-(hydroxy-diphenyl-methyl)-[1,2,4]oxadiazol-5-ylmethyl]-1-azonia-bicyclo[2.2.2]octane; chloride] | < 5 nM |
| O[C@](c1ccccc1)(c1nnc(C[N+]23CCC(CC2)[C@@H](Oc2ccc(F)cc2)C3)o1)C1CCCCC1 [Example 142, (R)-1-[5-((R)—Cyclohexyl-hydroxy-phenyl-methyl)-[1,3,4]oxadiazol-2-ylmethyl]-3-(4-fluoro-phenoxy)-1-azonia-bicyclo[2.2.2]octane; bromide] | < 5 nM |
